The values below come from US20260132384A1, “METHOD FOR REPROGRAMMING HUMAN SOMATIC CELLS INTO INDUCED PLURIPOTENT STEM CELLS” (EXONEUGLIA BIOTECHNOLOGY (SUZHOU) CO., LTD., priority 2023, published 2026).

The test system of the test is peripheral blood mononuclear cells (PBMCs). The test can be described thus: Reprogramming of human peripheral blood cells into induced pluripotent stem cells; clones counted by alkaline phosphatase staining. In kind it is cell-based. The following applies: day 14, clones per 5.0×10^5 reprogrammed PBMCs, OCT4, SOX2, LIN28 episomal plasmids, inducers added to induction medium. The protocol:
The inducing factors were introduced via electroporation of episomal plasmids in Treatment Groups 1 to 6. The groups differed only in the chemical inducer small molecules added to the pluripotent stem cell induction medium. The specific steps were as follows:
(2) Expansion of Peripheral Blood Cells: Freshly isolated peripheral blood cells (peripheral blood cells obtained with ethical approval were purchased from Shanghai HYCELLs Company) were seeded into a 6-well plate at a density of 5×10^6 cells/mL and cultured statically for 7 days at 37° C. in an incubator. The peripheral blood cell expansion medium used was StemPro™-34 medium supplemented with SCF 100 ng/ml, FLT-3 100 ng/ml, IL-3 20 ng/ml, IL-6 20 ng/ml, and TPO 100 ng/mL.
(3) Electroporation: Prior to electroporation, 500 μL of diluted basement membrane matrix (Matrigel) was added to a […] and placed in a CO2 incubator for coating. The expanded cells were collected and washed. After counting, the peripheral blood mononuclear cells (PBMCs) were placed in a 1.5 mL centrifuge tube at a density of 2×10^6 cells/mL. The tube was loaded into a centrifuge and centrifuged at 200 g for 5 minutes. After centrifugation, the supernatant was aspirated with a pipette and set aside for later use.
According to the Thermo Neon electroporation instrument protocols, buffer was added. The cell pellet was mixed with 5 μg of pCEP4-OCT4-IRES-SOX2 plasmid and 2 μg of pCEP4-Lin28 plasmid, and the mixture was loaded into the electroporation instrument for electroporation. Peripheral blood expansion medium was immediately added thereafter, and the cells were seeded in the coated 6-well plate at a density of 5×10^5 cells/mL and cultured statically for 48 h at 37° C. in a CO2 incubator.
(4) Induction: At 48 h post-electroporation, 1 mL of pluripotent stem cell induction medium was directly added to the original wells, and the culture was continued statically for 48 h at 37° C. in a CO2 incubator; On day 4 post-electroporation, half of the old medium in the original wells was aspirated and discarded, 1 mL of fresh pluripotent stem cell induction medium was then added, and the culture was continued statically for 48 h at 37° C. in a CO2 incubator; On day 6 post-electroporation, all the old medium in the original wells was aspirated and discarded, 1 mL of fresh pluripotent stem cell induction medium was added, and the culture was continued statically for 48 h at 37° C. in a CO2 incubator; On day 8 post-electroporation, all the old medium in the original wells was aspirated and discarded, 1 mL of fresh pluripotent stem cell induction medium was added, and the culture was continued statically for 48 h at 37° C. in a CO2 incubator; On day 10 post-electroporation, all the old medium in the original wells was aspirated and discarded, 1 mL of fresh mTeSR1 medium was added, and the culture was continued statically at 37° C. in a CO2 incubator; The mTeSR1 medium was changed daily until the induced pluripotent stem cells were fully mature, approximately on day 14 or 15 post-electroporation. Clones were then picked for expansion.
The pluripotent stem cell induction medium for Treatment Group 1 was mTeSR1 medium supplemented with 3 μM chir99021, 100 ng/ml FGF2, 250 μM NaB, 2 μM SB203580, 1 μM peficitinib, 1 μM FPFT-2216, 0.1 μM VTP50469, 2% (v/v) B27, and 1% (v/v)N-2.
The pluripotent stem cell induction medium for Treatment Group 2 was mTeSR1 medium supplemented with 3 μM chir99021, 100 ng/ml FGF2, 250 μM NaB. 1 μM peficitinib, 2% (v/v) B27, and 1% (v/v)N-2.
The pluripotent stem cell induction medium for Treatment Group 3 was mTeSR1 medium supplemented with 3 μM chir99021, 100 ng/ml FGF2, 250 μM NaB, 2 μM Tofacitinib, 2% (v/v) B27, and 1% (v/v)N-2.
The pluripotent stem cell induction medium for Treatment Group 4 was mTeSR1 medium supplemented with 3 μM chir99021, 100 ng/ml FGF2, 250 μM NaB, 2 μM SB203580, 2% (v/v) B27, and 1% (v/v)N-2. […]

`NC(=O)c1cnc2[nH]ccc2c1N[C@@H]1[C@@H]2CC3C[C@H]1C[C@@](O)(C3)C2` [Peficitinib]: the “Average Number of Pluripotent Stem Cell Clone/Well, Experiment 1” value was determined as 43 Clone/Well; the “Average Number of Pluripotent Stem Cell Clone/Well, Experiment 2” value was 52 Clone/Well; the “Average Number of Pluripotent Stem Cell Clone/Well, Experiment 3” value amounted to 47 Clone/Well.
The corresponding values for `C[S+]([O-])c1ccc(-c2nc(-c3ccncc3)c(-c3ccc(F)cc3)[nH]2)cc1` (stereo not drawn) [SB203580] are 51 Clone/Well, 56 Clone/Well and 48 Clone/Well.
The corresponding values for `C[C@@H]1CCN(C(=O)CC#N)C[C@@H]1N(C)c1ncnc2[nH]ccc12` [Tofacitinib] are 20 Clone/Well, 16 Clone/Well and 22 Clone/Well.
